Measurements taken from patent publication EP0409227A2, “Pyrimidine nucleosides, their preparation and pharmaceutical preparations” (MATTHES, Eckart, Dr., priority 1989, dated 1991).
Read-outs that look alike come from different tables or passages of the source.

Assays:
[1] = system: MT4 Zellen; test: Cytotoxicity: inhibition of proliferation of MT4 cells; assay type: cell-based
Experimental: Unter dem Aspekt einer möglichen Anwendung der Verbindungen am Menschen wurden ihre antiproliferativen Wirkungen an menschlichen Zellkulturen wie früher beschrieben getestet (E. Matthes et al. Biochem.Biophys.Res.Commun. 153, 825 (1988)). Dabei zeigte sich, daß z.B. 2′,3′-Didesoxy-3-fluor-5-methylcytidin gegenüber der T-Zellinie MT4 eine CD₅₀ von 190 µM aufweist. In einem weiteren Test, in dem eine mögliche Wachstumshemmung koloniebildender Zellen des Knochenmarks der Maus (CFU-GM) untersucht wurde (E. Matthes et al. Biochem.Biophys.Res.Commun. 165, 488 (1989), erwies sich diese Verbindung ebenfalls als kaum proliferationshemmend (CD₅₀ > 500 µM). Die Wirkung weiterer Verbindungen auf die Proliferation von MT4-Zellen ist in Tabelle 3 zusammengefaßt. Tabelle 3

[2] = target: T1, DNA-Polymerase-beta (Homo sapiens, UniProt P06746); test: Effect of modified nucleoside triphosphates on cellular DNA polymerase beta; assay type: biochemical; conditions: read-out: ID₅₀ (µM) DNA-Polymerase- beta
T1 construct: Die Isolierung der Enzyme und deren Aktivitätsbestimmung erfolgte entsprechend der Methode von Matthes et al; from tissue
From the text: (§1) Um zu prüfen, inwieweit die beschriebene Wirkung auf die HBV-Polymerase selektiv ist, d.h., die zellulären DNA-Polymerasen von einer Hemmung durch die erfindungsgemäßen Nucleosidtriphosphate ausgenommen sind, wurden die zellulären DNA-Polymerasen-alpha und -beta in die Untersuchungen einbezogen. Die Isolierung der Enzyme und deren Aktivitätsbestimmung erfolgte entsprechend der Methode von Matthes et al. (Biomed.Biochim.Acta 44, K63-K73 (1985)). Die Ergebnisse der Tabelle 2 zeigen, daß die für die Replikation der zellulären DNA zuständige DNA-Polymerase alpha weitgehend unbeeinflußt bleibt. Eine 50 %ige Hemmung dieses Enzyms wird mit Ausnahme auch bei Hemmstoffkonzentrationen >100 µM noch nicht erreicht, so daß die DNA-Polymerase-alpha diesen Verbindungen gegenüber als nahezu resistent anzusehen ist. Für die DNA-Polymerase-beta, die als Reparaturenzym zellulärer DNA-Schäden angesehen wird, liegen die ID₅₀- Werte zwischen 1 und >200 µM. Damit besitzt die beschriebene Verbindung eine hohe Wirkungsspezifität. Tabelle 2

[3] = target: T2, DNA-Polymerase-alpha (Homo sapiens, UniProt P09884); test: Effect of modified nucleoside triphosphates on cellular DNA polymerase alpha; assay type: biochemical; conditions: read-out: ID₅₀ (µM) DNA-Polymerase- alpha
T2 construct: Die Isolierung der Enzyme und deren Aktivitätsbestimmung erfolgte entsprechend der Methode von Matthes et al; from tissue
T2 sequence (P09884 1-1462): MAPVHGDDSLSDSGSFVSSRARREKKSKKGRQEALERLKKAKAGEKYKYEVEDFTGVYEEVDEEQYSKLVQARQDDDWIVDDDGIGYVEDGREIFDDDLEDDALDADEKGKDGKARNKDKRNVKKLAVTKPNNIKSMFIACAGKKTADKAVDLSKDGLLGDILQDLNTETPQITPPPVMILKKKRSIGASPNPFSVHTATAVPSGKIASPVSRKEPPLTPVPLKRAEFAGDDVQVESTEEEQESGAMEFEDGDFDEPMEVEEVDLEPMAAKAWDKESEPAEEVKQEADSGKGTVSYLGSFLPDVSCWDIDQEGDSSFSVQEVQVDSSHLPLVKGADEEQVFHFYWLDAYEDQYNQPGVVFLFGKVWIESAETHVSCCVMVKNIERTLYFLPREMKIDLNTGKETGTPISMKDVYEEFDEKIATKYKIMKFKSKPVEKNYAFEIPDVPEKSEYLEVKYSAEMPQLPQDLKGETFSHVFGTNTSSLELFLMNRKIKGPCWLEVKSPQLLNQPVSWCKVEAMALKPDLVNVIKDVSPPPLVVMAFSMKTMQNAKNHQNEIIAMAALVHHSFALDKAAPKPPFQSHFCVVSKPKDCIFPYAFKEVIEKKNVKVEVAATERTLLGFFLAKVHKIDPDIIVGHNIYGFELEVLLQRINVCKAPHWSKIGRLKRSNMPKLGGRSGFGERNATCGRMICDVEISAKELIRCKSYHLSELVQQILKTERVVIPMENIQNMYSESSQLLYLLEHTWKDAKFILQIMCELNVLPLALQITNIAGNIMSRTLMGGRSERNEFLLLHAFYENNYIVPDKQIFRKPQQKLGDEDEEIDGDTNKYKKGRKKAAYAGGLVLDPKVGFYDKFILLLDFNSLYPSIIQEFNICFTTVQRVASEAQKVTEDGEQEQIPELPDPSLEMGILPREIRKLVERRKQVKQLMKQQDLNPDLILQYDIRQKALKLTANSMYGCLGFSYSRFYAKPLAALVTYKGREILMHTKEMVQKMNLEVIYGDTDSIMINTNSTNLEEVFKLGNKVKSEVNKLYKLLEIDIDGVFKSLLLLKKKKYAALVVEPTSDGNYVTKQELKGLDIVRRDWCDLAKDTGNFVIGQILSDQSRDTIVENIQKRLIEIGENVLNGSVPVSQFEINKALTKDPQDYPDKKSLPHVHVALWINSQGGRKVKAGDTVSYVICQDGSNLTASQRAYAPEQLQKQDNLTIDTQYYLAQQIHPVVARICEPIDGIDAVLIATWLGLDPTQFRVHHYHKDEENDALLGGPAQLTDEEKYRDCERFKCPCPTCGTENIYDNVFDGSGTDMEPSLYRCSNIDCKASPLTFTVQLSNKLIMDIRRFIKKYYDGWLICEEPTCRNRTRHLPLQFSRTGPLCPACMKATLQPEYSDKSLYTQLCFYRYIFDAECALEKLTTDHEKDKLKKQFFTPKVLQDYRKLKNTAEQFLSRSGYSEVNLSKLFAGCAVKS
From the text: as §1

[4] = target: T3, HBV-Polymerase (Hepatitis B virus genotype D subtype ayw, UniProt P03156); test: Inhibition of HBV polymerase activity by nucleoside triphosphate analogues (method of Kaplan et al.); assay type: biochemical; conditions: 50 % inhibition of HBV polymerase activity; 3 h incubation at 37 °C; read-out: ID₅₀
T3 construct: Es wurde zunächst die Hemmbarkeit der HBV-assoziierten Polymerase; host or cells: virus-associated endogenous polymerase
From the text: Das Hepatitis B Virus (HBV) besitzt eine zirkuläre, partiell doppelsträngige DNA, welche nach Infektion einer Leberzelle durch eine viruseigene Polymerase repliziert wird. Dieser Vorgang setzt jedoch die Synthese einer RNA durch eine zelluläre RNA-Polymerase voraus. Nur diese RNA-Matrize - im Zusammenhang mit der Replikation auch als Prägenom bezeichnet - kann von der HBV-Polymerase für die Synthese zunächst eines RNA-DNA Hybrids und dann der doppelsträngigen DNA benutzt werden. Damit verfügt die HBV-Polymerase über eine enzymatische Aktivität, die der einer reversen Transcriptase ähnelt (Will et al., J.Virology 61, 904 (1987)). Es wurde zunächst die Hemmbarkeit der HBV-assoziierten Polymerase durch die 5′-Triphosphate der erfindungsgemäßen Verbindungen untersucht. Dazu wurde die von Kaplan et al. (J.Virology 12, 995 (1973)) angegebene Methode zur Bestimmung der HBV-Polymerase benutzt, wobei die zu testenden Triphosphate den Ansätzen in verschiedenen Konzentrationen zugesetzt wurden. Die Hemmung der Enzymreaktion wurde nach 3-stündiger Inkubation bei 37 °C durch Vergleich mit einem Kontrollwert ermittelt und daraus die Konzentration der zugesetzten Analoga bestimmt, die zu einer 50 %igen Hemmung der HBV-Polymerase-Aktivität führt (ID₅₀). Tabelle 1 zeigt die Ergebnisse, wobei insbesondere 2′,3′-Didesoxy-3′-fluor-5-methylcytidin durch einen Wert ID₅₀ von 0,03 µM herausragt und damit zu den stärksten bisher bekannten Hemmstoffen der HBV-Polymerase zu rechnen ist. Tabelle 1

T3 sequence (P03156 whole entry): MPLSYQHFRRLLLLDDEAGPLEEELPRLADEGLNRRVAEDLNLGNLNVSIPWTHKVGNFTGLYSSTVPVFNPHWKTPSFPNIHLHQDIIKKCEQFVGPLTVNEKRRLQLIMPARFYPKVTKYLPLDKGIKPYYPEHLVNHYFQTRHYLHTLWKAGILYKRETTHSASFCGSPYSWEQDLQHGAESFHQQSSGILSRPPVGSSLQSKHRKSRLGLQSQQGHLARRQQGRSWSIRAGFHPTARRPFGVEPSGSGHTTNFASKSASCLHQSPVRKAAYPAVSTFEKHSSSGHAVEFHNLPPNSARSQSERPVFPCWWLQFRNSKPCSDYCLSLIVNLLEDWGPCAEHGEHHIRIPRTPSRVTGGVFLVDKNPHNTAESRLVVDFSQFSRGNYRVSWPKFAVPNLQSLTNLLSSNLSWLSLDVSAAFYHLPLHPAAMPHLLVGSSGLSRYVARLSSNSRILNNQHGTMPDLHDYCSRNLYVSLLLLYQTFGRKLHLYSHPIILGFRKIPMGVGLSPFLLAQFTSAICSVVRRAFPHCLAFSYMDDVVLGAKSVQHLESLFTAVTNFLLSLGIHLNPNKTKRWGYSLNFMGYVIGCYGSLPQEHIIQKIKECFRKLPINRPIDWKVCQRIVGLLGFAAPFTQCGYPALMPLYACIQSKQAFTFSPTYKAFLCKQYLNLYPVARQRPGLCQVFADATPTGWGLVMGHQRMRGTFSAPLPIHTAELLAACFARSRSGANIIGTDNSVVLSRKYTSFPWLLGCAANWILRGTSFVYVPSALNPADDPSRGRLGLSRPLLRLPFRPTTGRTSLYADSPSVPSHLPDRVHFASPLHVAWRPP

SMILES	CD₅₀ ([1]; human, 48 h)	IC50 [2]	IC50 [3]	IC50 [4]	CD₅₀ [1]
Cc1cn([C@H]2CC[C@@H](CO)O2)c(=O)nc1N [2′,3′-Didesoxy-5-methylcytidin]	110 µM				
Nc1nc2c(ncn2[C@H]2C=C[C@@H](COP(=O)(O)OP(=O)(O)OP(=O)(O)O)O2)c(=O)[nH]1 [ddeGTP, 2′,3′-Didehydro-2′,3′-didesoxyguanosin-5′-triphosphat]		5 µM	> 150 µM	1.6 µM	
Cc1cn([C@H]2C[C@H](N=[N+]=[N-])[C@@H](CO)O2)c(=O)nc1N [2′,3′-Didesoxy-3′-azido-5-methylcytidin]	> 500 µM				
Nc1nc2c(ncn2[C@H]2C[C@H](F)[C@@H](CO)O2)c(=O)[nH]1 [2′,3′-Didesoxy-3′-fluorguanosin]					250 µM
Cc1cn([C@H]2C=C[C@@H](COP(=O)(O)OP(=O)(O)OP(=O)(O)O)O2)c(=O)nc1N [ddeMetCTP, 2′,3′-Didehydro-2′,3′-didesoxy-5-methylcytidin-5′-triphosphat]		10 µM	> 200 µM	0.28 µM	
Nc1ncnc2c1ncn2[C@H]1C=C[C@@H](COP(=O)(O)OP(=O)(O)OP(=O)(O)O)O1 [ddeATP, 2′,3′-Didehydro-2′,3′-didesoxyadenosin-5′-triphosphat]		4.5 µM	> 100 µM	1.8 µM	
Cc1cn([C@H]2C[C@H](N)[C@@H](COP(=O)(O)OP(=O)(O)OP(=O)(O)O)O2)c(=O)nc1N [NH₂MetdCTP, 2′,3′-Didesoxy-3′-amino-5-methylcytidin-5′-triphosphat]		> 200 µM	> 200 µM	26 µM	
Nc1nc2c(ncn2[C@H]2C[C@H](N)[C@@H](CO)O2)c(=O)[nH]1 [2′,3′-Didesoxy-3′-aminoguanosin]	210 µM				
Cc1cn([C@H]2C=C[C@@H](CO)O2)c(=O)nc1N [2′,3′-Didehydro-2′,3′-didesoxy-5-methylcytidin]	205 µM				
Nc1ccn([C@H]2C=C[C@@H](COP(=O)(O)OP(=O)(O)OP(=O)(O)O)O2)c(=O)n1 [ddeCTP, 2′,3′-Didehydro-2′,3′-didesoxycytidin-5′-triphosphat]		6 µM	> 200 µM	2.5 µM	
Cc1cn([C@H]2C[C@H](F)[C@@H](COP(=O)(O)OP(=O)(O)OP(=O)(O)O)O2)c(=O)nc1N [FMetdCTP, 2′,3′-Didesoxy-3′-fluor-5-methylcytidin-5′-triphosphat]		1 µM	> 200 µM	0.03 µM	
Nc1nc2c(ncn2[C@H]2C=C[C@@H](CO)O2)c(=O)[nH]1 [2′,3′-Didehydro-2′,3′-didesoxyguanosin]	155 µM				
Cc1cn([C@H]2C[C@H](Cl)[C@@H](COP(=O)(O)OP(=O)(O)OP(=O)(O)O)O2)c(=O)nc1N [ClMetdCTP, 2′,3′-Didesoxy-3′chlor-5-methylcytidin-5′-triphosphat]		100 µM	> 200 µM	9 µM	
CCc1cn([C@H]2C[C@H](F)[C@@H](COP(=O)(O)OP(=O)(O)OP(=O)(O)O)O2)c(=O)nc1N [FEtdCTP, 2′,3′-Didesoxy-3′-fluor-5-ethylcytidin-5′-triphosphat]		3 µM	> 200 µM	0.35 µM	
Cc1cn([C@H]2C[C@H](N=[N+]=[N-])[C@@H](COP(=O)(O)OP(=O)(O)OP(=O)(O)O)O2)c(=O)nc1N [N₃MetdCTP, 2′,3′-Didesoxy-3′-azido-5-methylcytidin-5′-triphosphat]		> 200 µM	> 200 µM	0.12 µM	
Cc1cn([C@H]2CC[C@@H](COP(=O)(O)OP(=O)(O)OP(=O)(O)O)O2)c(=O)nc1N [ddMetCTP, 2′,3′-Didesoxy-5-methylcytidin-5′-triphosphat]		> 100 µM	> 200 µM	8 µM	
Nc1nc2c(ncn2[C@H]2C[C@H](F)[C@@H](COP(=O)(O)OP(=O)(O)OP(=O)(O)O)O2)c(=O)[nH]1 [FdGTP, 2′,3′-Didesoxy-3′-fluorguanosin-5′-triphosphat]		1.8 µM	> 200 µM	0.15 µM	
